The test system of assay [1] is cultured human mast cells (CHMC). Briefly: CHMC low cell density IgE activation: tryptase assay. The class given is cell-based. To be noted: anti-IgE. An outline of the steps:
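CHMC resuspended in pre-warmed MT buffer at 1000-1500 cells/well (donor-dependent) and preincubated 1 hr at 37° C, then stimulated with anti-IgE for 30 min at 37° C; unstimulated wells got MT alone. Supernatant tryptase activity read with tryptase substrate after 30 min at room temperature.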

Assay [2] has the same test system. Briefly: CHMC low cell density ionomycin activation: tryptase assay. The class given is cell-based.

pIC50: −log10 of the molar value.

One may read the pIC50 as the IC50 on a negative log10 scale, so that one unit is a factor of ten. A high value points to a small IC50. As to `CC(C)(C)c1cccc(Nc2nc(Nc3cccc(OCC(=O)O)c3)ncc2F)c1` [R940280, N4-(3-tert-Butylphenyl)-N2-[3-carboxymethyleneoxyphenyl]-5-fluoro-2,4-pyrimidinediamine], the pIC50 is 5.15 in assay [1] and under 5.00 in assay [2].

On to `CCOC(=O)COc1cccc(Nc2ncc(C(=O)OCC)c(Nc3ccc4c(c3)OC(F)(F)C(F)(F)O4)n2)c1` [R926799, N2-(3-Ethoxycarbonylmethyleneoxyphenyl)-5-ethoxycarbonyl-N4-(3,4-tetrafluoroethylenedioxyphenyl)-2,4-pyrimidinediamine], for which the pIC50 in assay [1] and in assay [2] was under 5.00 each time.

As for `CNC(=O)COc1ccc(Nc2ncc(C#N)c(Nc3cccc(O)c3)n2)cc1` [R925844, 5-Cyano-N4-(3-hydroxyphenyl)-N2-[4-(N-methylamino)carbonylmethyleneoxyphenyl]-2,4-pyrimidinediamine], the pIC50 was 5.29 in assay [1] and under 5.00 in assay [2].

Regarding `ON=C(c1ccccc1)c1cccc(Nc2ncc(F)c(Nc3cccc(C(=NO)c4ccccc4)c3)n2)c1` [R950380, N2,N4-Bis(3-phenylcarbonyloximephenyl)-5-fluoro-2,4-pyrimidinediamine], the pIC50 is 5.52 in assay [1] and under 5.00 in assay [2].

Consider `CNC(=O)Cn1ncc2ccc(Nc3ncc(F)c(Nc4ccc5c(c4)OCCO5)n3)cc21` [R935212, N4-(3,4-ethylenedioxyphenyl)-5-fluoro-N2-[1-(N-methylaminocarbonyl)methyl-indazoline-6-yl]-2,4-pyrimidinediamine], for which the figures for the pIC50 in assay [1] and in assay [2] were 5.85 and under 5.00, respectively.

For the molecule `Cn1nnc(COc2ccc(Nc3nc(Nc4ccc(OCc5nnnn5C)cc4)ncc3F)cc2)n1` [R945047, 5-Fluoro-N2,N4-[4-(1-methyl-1,2,3,4-tetrazol-5-yl)methyleneoxyphenyl], [4-(2-methyl-1,2,3,4-tetrazol-5-yl)methyleneoxyphenyl]-2,4-pyrimidinediamine], the pIC50 in assay [1] is 6.07; in assay [2], under 5.00.

“N2-[3-(N-2-Aminoethylamino)carbonylmethylene aminophenyl]-5-fluoro-N4-[3-(2-hydroxyethylenoxy)phenyl]-2,4-pyrimidinediamine [R950232]”: the pIC50 was 5.00 in assay [1] and under 5.00 in assay [2].

In the case of “N2-(3-Ethylcarboxy-4H-imidazo[5,1-c]-1,4-benzoxazin-6-yl)-5-fluoro-N4-(3-hydroxyphenyl)pyrimidinediamine [R909267]”, the figures for the pIC50 in assay [1] and in assay [2] were 6.23 and under 5.00, respectively.

Regarding `CCOC(=O)COc1cccc(Nc2ncc(F)c(Nc3ccc(O)c(C(=O)OC)c3)n2)c1` [R950293, N4-(3-Methoxycarbonyl-4-hydroxyphenyl)-5-fluoro-N2-[3-ethoxycarbonylmethyleneoxyphenyl]-2,4-pyrimidinediamine], the pIC50 was 5.43 in assay [1] and 5.09 in assay [2].

Turning to `CNC(=O)COc1cccc(Nc2ncc(F)c(Nc3ccc(Cl)c(-c4nc5ccccc5s4)c3)n2)c1` [R926900, N4-[3-(Benzothiazol-2-yl)-4-chlorophenyl]-5-fluoro-N2-[3-[(N-methylamino)carbonylmethyleneoxy]phenyl)-2,4-pyrimidinediamine], the pIC50 in assay [1] and in assay [2] was under 5.00 throughout.

For `Fc1cnc(Cl)nc1Nc1cccc(-c2nnn[nH]2)c1` [Compound R926853], the pIC50 in assay [1] and in assay [2] was under 5.00 in each case.

With `CNC(=O)COc1cccc(Nc2ncc(F)c(Nc3ccc(OC)c(C(=O)NC)c3)n2)c1` [R940306, 5-Fluoro-N2-[3-(methylaminocarbonylmethyleneoxy)phenyl]-N4-(3-methylaminocarbonyl-4-methoxyphenyl)-2,4-pyrimidinediamine], the pIC50 was 5.96 in assay [1] and under 5.00 in assay [2].

On to `CNC(=O)COc1cccc(Nc2ncc(F)c(Nc3ccc4c(c3)NC(=O)C(C)(C)O4)n2)c1` [R940323, N4-[(2,2-Dimethyl-4H-benzo[1,4]oxazin-3-one)-6-yl]-5-fluoro-N2-[3-(methylaminocarbonylmethyleneoxy)phenyl]-2,4-pyrimidinediamine], for which the results for the pIC50 in assay [1] and in assay [2] were 7.32 and under 5.00, respectively.

Turning to `Cc1ccc(Nc2nc(Cl)ncc2F)cc1C(F)(F)F` [Compound R926920], the pIC50 in assay [1] and in assay [2] was under 5.00 each time.

As to `Fc1cnc(Nc2ccc3c(c2)OCCCO3)nc1Nc1ccc2c(c1)OCCCO2` [R935162, N2,N4-Bis(3,4-propylenedioxyphenyl)-5-fluoro-2,4-pyrimidinediamine], the pIC50 in assay [1] is 6.57; in assay [2] it was under 5.00.

Turning to `COC(=O)Cn1ncc2ccc(Nc3nc(Nc4ccc5c(c4)OCCO5)ncc3F)cc21` [R935219, N2-(3,4-Ethylenedioxyphenyl)-5-fluoro-N4-[1-(methoxycarbonyl)methyl-indazoline-6-yl]-2,4-pyrimidinediamine], the figures for the pIC50 in assay [1] and in assay [2] were 5.27 and under 5.00, respectively.

Take `CNC(=O)COc1cccc(Nc2ncc(F)c(Nn3cccc3)n2)c1` [R935281, 5-Fluoro-N2-[3-(N-methylaminocarbonylmethyleneoxy)phenyl]-N4-(1H-pyrrol-1-yl)-2,4-pyrimidinediamine]: the negative logarithm of the IC50 (pIC50) in assay [1] is 5.85; in assay [2], under 5.00.

In the case of `CCOC(=O)c1cnc(Nc2cccc(OCC(=O)NC)c2)nc1Nc1cc(OC)cc(OC)c1` [R926801, N4-(3,5-Dimethoxyphenyl)-5-ethoxycarbonyl-N2-[3-(N-methylamino)carbonylmethyleneoxyphenyl]-2,4-pyrimidinediamine], the pIC50 is 5.00 in assay [1] and under 5.00 in assay [2].

With `COCOc1ccc(Nc2nc(Nc3cccc(O)c3)ncc2F)c(F)c1` [R926680, 5-Fluoro-N4-[2-fluoro-4-(methoxymethyleneoxy)phenyl]-N2-(3-hydroxyphenyl)-2,4-pyrimidinediamine], the pIC50 is 5.77 in assay [1] and under 5.00 in assay [2].

In the case of `Fc1cnc(Nc2ccc3c(c2)OCCO3)nc1NNc1ccc2c(c1)OCO2` [R926406, N2-(3,4-Ethylenedioxyphenyl)-N4-(3,4-methylenedioxyphenylhydrazinyl)-5-fluoro-2-pyrimidineamine], the negative-log IC50 (pIC50) in assay [1] and in assay [2] was under 5.00 throughout.

For `OB(O)c1cccc(Nc2ncc(F)c(Nc3ccc4c(c3)OCCO4)n2)c1` [R926837, N2-(3-Boronylphenyl)-N4-(3,4-ethylenedioxyphenyl)-5-fluoro-2,4-pyrimidinediamine], the pIC50 is 5.52 in assay [1] and under 5.00 in assay [2].

Regarding `NC(=O)COc1ccc(Nc2ncc(F)c(Nc3cccc(O)c3)n2)cc1` [R945064, N2-[4-(Aminocarbonylmethyleneoxy)phenyl]-5-fluoro-N4-(3-hydroxyphenyl)-2,4-pyrimidinediamine], the pIC50 in assay [1] was 6.28; in assay [2] it was under 5.00.

Consider `CNC(=O)COc1cccc(Nc2nc(Nc3cccc4c3CCO4)ncc2F)c1` [R909249, N2-(4-Dihydrobenzofuranyl)-5-fluoro-N4-[3-(N-methylamino)carbonylmethyleneoxyphenyl]-2,4-pyrimidinediamine], for which the pIC50 in assay [1] and in assay [2] was under 5.00 throughout.

Turning to `Fc1cnc(Nc2ccc3[nH]ncc3c2)nc1Nc1ccc2[nH]ncc2c1` [R935189, N2,N4-Bis(indazolin-5-yl)-5-fluoro-2,4-pyrimidinediamine], the negative logarithm of the IC50 (pIC50) was 6.21 in assay [1] and under 5.00 in assay [2].

As for `CNC(=O)COc1cccc(Nc2ncc(F)c(Nc3ccc(C)c(Cl)c3)n2)c1` [R926839, N4-(3-Chloro-4-methylphenyl)-5-fluoro-N2-[3-(N-methylamino)carbonylmethyleneoxyphenyl]-2,4-pyrimidinediamine], the pIC50 is 6.79 in assay [1] and under 5.00 in assay [2].

Turning to `CNC(=O)COc1cccc(Nc2ncc(F)c(Nc3ccc4[nH]ncc4c3)n2)c1` [R935279, 5-Fluoro-N4-(indazoline-5-yl)-N2-[3-(N-methylaminocarbonylmethyleneoxy)phenyl]-2,4-pyrimidinediamine], the pIC50 was 6.05 in assay [1] and under 5.00 in assay [2].

In the case of `CNC(=O)CCn1ncc2cc(Nc3ncc(F)c(Nc4cccc(OC(F)(F)F)c4)n3)ccc21` [R935361, 5-Fluoro-N2-[1-[2(N-methylaminocarbonyl)ethyl]indazoline-5-yl]-N4-(3-trifluoromethoxyphenyl)-2,4-pyrimidinediamine], the values for the pIC50 in assay [1] and in assay [2] were 5.84 and under 5.00, respectively.

As for `Fc1cnc(Cl)nc1Nc1ccc2c(c1)CN(c1nc(Cl)ncc1F)CC2` [Compound R926910], the pIC50 in assay [1] and in assay [2] was under 5.00 each time.

With `CCOC(=O)C(C)(C)c1ccc(Nc2nc(Nc3ccc4c(c3)OCCO4)ncc2F)cc1` [R935148, N2-(3,4-Ethylenedioxyphenyl)-N4-[4-[(1-ethoxycarbonyl-1-methyl)ethyl]phenyl]-5-fluoro-2,4-pyrimidinediamine], the pIC50 in assay [1] is 5.65; in assay [2], 5.03.

`COC(=O)C1Cc2cc(Nc3ncc(F)c(Nc4cccc(C(F)(F)F)c4)n3)ccc2O1` (racemic) [R927028, (±)-N2-(2,3-Dihydro-2-methoxycarbonylbenzofuran-5-yl)-5-fluoro-N4-(3-trifluorophenyl)-2,4-pyrimidinediamine]: the figures for the pIC50 in assay [1] and in assay [2] were 6.68 and under 5.00, respectively.

With `Cc1cc(Nc2nc(Nc3cccc(OCC(=O)N4CCNCC4)c3)ncc2F)cc(Cl)c1O` [R945149, N4-(3-Chloro-4-hydroxy-5-methylphenyl)-5-fluoro-N2-[3-(N-piperazino)carbonylmethyleneoxyphenyl]-2,4-pyrimidinediamine], the pIC50 is 6.41 in assay [1] and under 5.00 in assay [2].

Take `O=C(COc1cccc(Nc2ncc(F)c(Nc3ccc4c(c3)C(=O)OC4)n2)c1)NCC(O)CO` (stereo not shown) [R940293, N4-(3,3-Dihydroisobenzofuran-1-one-6-yl)-N2-[3-(N-2,3-dihydroxypropylamino)carbonylmethyleneoxyphenyl]-5-fluoro-2,4-pyrimidinediamine]: the pIC50 in assay [1] and in assay [2] was under 5.00 in each case.

For the origin of these results see patent US9499493B2, “2,4-pyrimidinediamine compounds and their uses” (Rigel Pharmaceuticals, Inc., priority 2002, dated 2016).
